Test results as given in ChEMBL document CHEMBL3085746, “Discovery of novel PTP1B inhibitors via pharmacophore-oriented scaffold hopping from Ertiprotafib” (Bioorg Med Chem Lett, 2013).
pIC50: −log10 of the molar value.

Columns and labels:
[1] = target: T1, Tyrosine-protein phosphatase non-receptor type 1 (Homo sapiens, UniProt P18031); assay: Inhibition of GST-tagged recombinant human PTP1B
T1 sequence (P18031 whole entry): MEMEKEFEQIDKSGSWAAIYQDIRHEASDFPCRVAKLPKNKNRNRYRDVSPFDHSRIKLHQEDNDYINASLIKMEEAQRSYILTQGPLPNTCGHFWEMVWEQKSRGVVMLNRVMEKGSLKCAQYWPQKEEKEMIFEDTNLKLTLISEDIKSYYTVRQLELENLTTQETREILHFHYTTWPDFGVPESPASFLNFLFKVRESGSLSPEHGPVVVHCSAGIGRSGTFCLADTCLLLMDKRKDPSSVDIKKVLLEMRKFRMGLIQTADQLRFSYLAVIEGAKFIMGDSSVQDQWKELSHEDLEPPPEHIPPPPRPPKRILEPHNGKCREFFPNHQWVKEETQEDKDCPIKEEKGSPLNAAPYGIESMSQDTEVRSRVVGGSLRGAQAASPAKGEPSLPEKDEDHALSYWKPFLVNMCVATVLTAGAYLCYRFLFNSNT

[2] = target: T2, Tyrosine-protein phosphatase non-receptor type 1 (Homo sapiens) (UniProt P18031); assay: Inhibition of GST-tagged recombinant human PTP1B at 100 uM
T2 sequence (whole entry): T1 sequence (P18031 whole entry)

Q: Which results are given for `O=C(O)CC(CC(=O)c1ccccc1)c1ccc(-n2c3ccccc3c3ccccc32)cc1` (stereo not given)?
A: pIC50 [1]: 4.99; inhibition [2]: 106%

Q: With `O=C(N[C@H](Cc1ccccc1)C(=O)O)c1ccc(Cn2c3ccccc3c3ccccc32)cc1` as the compound, how does the inhibition [2] read?
A: 51.8%

Q: How did the inhibition [2] turn out when `COc1ccc(N(Cc2ccc(O[C@H](Cc3ccccc3)C(=O)O)cc2)C(=O)c2ccc3c(c2)OCO3)cc1` was run?
A: < 40%

Q: With `O=C(O)[C@@H](Cc1ccccc1)Oc1c(Br)cc(-c2c3ccccc3c(Br)c3oc4ccccc4c23)cc1Br` as the compound, how does the pIC50 [1] read?
A: 6.06

Q: What about the inhibition [2] of the same compound?
A: 100%

Q: How did the inhibition [2] turn out when `COc1ccc(N(Cc2ccc(O[C@H](Cc3ccccc3)C(=O)O)cc2)C(=O)c2ccc(C(=O)O)cc2)cc1` was run?
A: < 40%

Q: `O=C(O)[C@@H](Cc1ccccc1)Oc1ccc(CN(Cc2ccc3c(c2)OCO3)c2ccc(F)cc2)cc1` was tested. Which pIC50 [1] did it give?
A: 4.98

Q: What about the inhibition [2] of the same compound?
A: 112%

Q: For `O=C(O)[C@@H](Cc1ccccc1)Oc1ccc(C(=O)N(Cc2ccc3c(c2)OCO3)c2ccc(F)cc2)cc1`, which inhibition [2] is on record?
A: < 40%

Q: For `O=C(O)CN(Cc1ccccc1)c1ccc(CN(Cc2ccc3c(c2)OCO3)c2ccc(F)cc2)cc1`, which inhibition [2] is on record?
A: 44.3%

Q: With `COc1ccc(N(Cc2ccc3c(c2)OCO3)C(=O)c2ccc(CN(CC(=O)O)Cc3ccccc3)cc2)cc1` as the compound, how does the inhibition [2] read?
A: < 40%

Q: `O=C(O)CN(Cc1ccccc1)Cc1ccc(-n2c3ccccc3c3ccccc32)cc1` was tested. Which inhibition [2] did it give?
A: 67.3%

Q: Which inhibition [2] does the source give for `O=C(O)CC(CC(=O)c1ccccc1)c1ccc(CN(Cc2ccc3c(c2)OCO3)c2ccc(F)cc2)cc1` (stereo not given) here?
A: 59.1%

Q: For `O=C(N[C@H](Cc1ccccc1)C(=O)O)c1ccc(C(=O)N(Cc2ccccc2)Cc2ccccc2)cc1`, which inhibition [2] is on record?
A: < 40%

Q: For `COc1ccc(N(Cc2ccc(C(=O)N[C@H](Cc3ccccc3)C(=O)O)cc2)Cc2ccc3c(c2)OCO3)cc1`, which inhibition [2] is on record?
A: 100%

Q: With `O=C(N[C@H](Cc1ccccc1)C(=O)O)c1ccc(CN(Cc2ccccc2)Cc2ccccc2)cc1` as the compound, how does the pIC50 [1] read?
A: 4.62

Q: And the inhibition [2]?
A: 95%

Q: Which inhibition [2] does the source give for `O=C(O)CC(CC(=O)c1ccccc1)c1ccc(OC(c2ccccc2)c2ccccc2)cc1` (stereo not given) here?
A: 61%

Q: What does the source list for `O=C(O)[C@@H](Cc1ccccc1)Oc1ccc(-n2c3ccccc3c3ccccc32)cc1`?
A: pIC50 [1]: 4.39; inhibition [2]: 98.4%

Q: How did the pIC50 [1] turn out when `O=C(O)CC(CC(=O)c1ccccc1)c1ccc(Cn2c3ccccc3c3ccccc32)cc1` (stereo not given) was run?
A: 5.00

Q: What about the inhibition [2] of the same compound?
A: 98%

Q: With `O=C(O)CN(C(=O)Cc1ccccc1)c1ccc(CN(Cc2ccc3c(c2)OCO3)c2ccc(F)cc2)cc1` as the compound, how does the pIC50 [1] read?
A: 5.89

Q: What about the inhibition [2] of the same compound?
A: 96.4%

Q: For `COc1ccc(N(Cc2ccc3c(c2)OCO3)C(=O)c2ccc(C(CC(=O)O)CC(=O)c3ccccc3)cc2)cc1` (stereo not given), which inhibition [2] is on record?
A: < 40%

Q: For `O=C(N[C@H](Cc1ccccc1)C(=O)O)c1ccc(CN(c2ccccc2)c2ccccc2)cc1`, which inhibition [2] is on record?
A: 83.8%

Q: How did the inhibition [2] turn out when `O=C(N[C@H](Cc1ccccc1)C(=O)O)c1ccc(Cn2c(Cc3ccccc3)nc3ccccc32)cc1` was run?
A: 53.4%

Q: How did the pIC50 [1] turn out when `O=C(N[C@H](Cc1ccccc1)C(=O)O)c1ccc(CN(Cc2ccccc2)c2ccccc2)cc1` was run?
A: 5.41

Q: And the inhibition [2]?
A: 113%
